These results are taken from patent US7208176B2, “Drug delivery device containing neuraminidase inhibitor and an H1 antagonist” (Osmotica Corp., priority 2001, dated 2007).

For data set [1] the following is noted: cited from earlier work.
Data set [2] in a line: in vivo. To be noted: po.
The conditions of data set [3]: cited from earlier work. This is another data set of the same source.

As usually defined, the Tmax is the time at which the peak concentration occurs. By half-life is commonly meant the time in which the quantity being followed falls by half. Read a low half-life as fast loss. With `CCC(CC)O[C@@H]1C=C(C(=O)O)C[C@H](N)[C@H]1NC(C)=O` [Active metabolite of oseltamivir, oseltamivir carboxylate], in data set [1] (75 mg twice daily), the “steady-state plasma trough concentrations versus minimum inhibitory concentration” value is recorded as “remain above the minimum inhibitory concentration for all influenza strains tested”. The “metabolite clearance in renal impairment” value in data set [1] (human, in vivo) is “decreases linearly with creatinine clearance”. In data set [1] (in vivo, po), the “absolute bioavailability of the active metabolite” value is “about 80%”, the “time to maximal concentrations” value was 3 to 4 h and the “time until detectable in plasma” value was ≤ 30 min. Also, in data set [1] (in vivo), the accumulation result is given as “less than 2 fold”; the apparent half-life was 6 to 10 h; the “exposure at steady state, higher in elderly compared with young individuals” value is “approximately 25%”; the “time to steady-state plasma concentrations” value is reported as ≤ 3 days. Also, in data set [2], the Tmax is 8 h and the half-life was 14 h.
Regarding `CCOC(=O)C1=C[C@@H](OC(CC)CC)[C@H](NC(C)=O)[C@@H](N)C1` [Oseltamivir, reference compound], the “absorption and conversion after oral administration” value in data set [1] (oral, G. He et al.) is “readily absorbed from the gastrointestinal tract and extensively converted to the active metabolite”. In data set [2], the Tmax is 3 h and the half-life fell in the range of 5 to 7 h.
`CC(=O)N[C@H]1[C@H]([C@H](O)[C@H](O)CO)OC(C(=O)O)=C[C@@H]1N=C(N)N` [zanamivir, 4-guanidino-2,4-dideoxy-2,3-dehydro-N-acetylneuraminic acid]: in data set [3] (Cass et al.), the median serum half-life is 2.5 and 5.05 hours. Further, in data set [3] (in vivo), the “dose systemically absorbed (median)” value was 10 to 20%, the “excreted unchanged in the urine” value was “approximately 90%”, the “time to maximum serum concentrations” value is 1 to 2 h and the tolerability entry is “well tolerated at all doses”.
